Results from patent US12077503B2, “Substituted cyclic amides and their use as herbicides” (FMC CORPORATION, priority 2015, dated 2024).

Key:
Format in all cases: in vivo
[1] = test system: barnyardgrass (Echinochloa crus-galli); test: Test G Post-Emergence Protocol; details: Echinochloa crus-galli, post-emergence, 312 h, read-out: Barnyardgrass damage rating; for pest or weed control at 15.625 g/ha: 15.625 g ai/ha, evaluated after 13 days (100=total damage to plant; 0=no damage to plant); for pest or weed control at 62.5 g/ha: 62.5 g ai/ha; for pest or weed control at 62.5 g/ha / pest or weed control at 250 g/ha: evaluated after 13 days, 100=total damage to plant, 0=no damage to plant; for pest or weed control at 250 g/ha: 250 g ai/ha
Outline: (§1)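 Scores run 0 (no damage) to 100 (total damage) and were taken 13 days after spraying. Plants had been raised in pots for 8 days under glasshouse control (24/16 °C, 14 h photoperiod, 65% humidity) and then treated at 15.625, 62.5 or 250 g/ha.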

[2] = test system: giant foxtail (Setaria faberi); test: Test G Post-Emergence Protocol; details: Setaria faberi, post-emergence, 312 h, read-out: Foxtail, Giant damage rating; for pest or weed control at 15.625 g/ha: 15.625 g ai/ha, evaluated after 13 days (100=total damage to plant; 0=no damage to plant); for pest or weed control at 62.5 g/ha: 62.5 g ai/ha; for pest or weed control at 62.5 g/ha / pest or weed control at 250 g/ha: evaluated after 13 days, 100=total damage to plant, 0=no damage to plant; for pest or weed control at 250 g/ha: 250 g ai/ha
Outline: as §1

[3] = test system: velvetleaf (Abutilon theophrasti); test: Test G Post-Emergence Protocol; details: Abutilon theophrasti, post-emergence, 312 h, read-out: Velvetleaf damage rating; for pest or weed control at 15.625 g/ha: 15.625 g ai/ha, evaluated after 13 days (100=total damage to plant; 0=no damage to plant); for pest or weed control at 62.5 g/ha: 62.5 g ai/ha; for pest or weed control at 62.5 g/ha / pest or weed control at 250 g/ha: evaluated after 13 days, 100=total damage to plant, 0=no damage to plant; for pest or weed control at 250 g/ha: 250 g ai/ha
Outline: as §1

corn (Zea mays) [4] = test: Test G Post-Emergence Protocol; details: Zea mays, post-emergence, 312 h, read-out: Corn damage rating; for plant injury at 15.625 g/ha: 15.625 g ai/ha, evaluated after 13 days (100=total damage to plant; 0=no damage to plant); for plant injury at 62.5 g/ha: 62.5 g ai/ha; for plant injury at 62.5 g/ha / plant injury at 250 g/ha: evaluated after 13 days, 100=total damage to plant, 0=no damage to plant; for plant injury at 250 g/ha: 250 g ai/ha
Outline: as §1

[5] = test system: redroot pigweed (Amaranthus retroflexus); test: Test G Post-Emergence Protocol; details: Amaranthus retroflexus, post-emergence, 312 h, read-out: Pigweed, Redroot damage rating; for pest or weed control at 15.625 g/ha: 15.625 g ai/ha, evaluated after 13 days (100=total damage to plant; 0=no damage to plant); for pest or weed control at 62.5 g/ha: 62.5 g ai/ha; for pest or weed control at 62.5 g/ha / pest or weed control at 250 g/ha: evaluated after 13 days, 100=total damage to plant, 0=no damage to plant; for pest or weed control at 250 g/ha: 250 g ai/ha
Outline: as §1

[6] = test system: ivy-leaved morning glory (Ipomoea hederacea); test: Test G Post-Emergence Protocol; details: Ipomoea, post-emergence, 312 h, read-out: Morningglory, Ivy-leaved damage rating; for pest or weed control at 15.625 g/ha: 15.625 g ai/ha, evaluated after 13 days (100=total damage to plant; 0=no damage to plant); for pest or weed control at 62.5 g/ha: 62.5 g ai/ha; for pest or weed control at 62.5 g/ha / pest or weed control at 250 g/ha: evaluated after 13 days, 100=total damage to plant, 0=no damage to plant; for pest or weed control at 250 g/ha: 250 g ai/ha
Outline: as §1

[7] = test system: barnyardgrass (Echinochloa crus-galli); test: Test G Pre-Emergence Protocol; details: Echinochloa crus-galli, pre-emergence, 312 h, evaluated after 13 days; for pest or weed control at 15.625 g/ha: 15.625 g ai/ha; for pest or weed control at 15.625 g/ha / pest or weed control at 250 g/ha: read-out: Barnyardgrass damage rating (100=total damage to plant; 0=no damage to plant); for pest or weed control at 62.5 g/ha: 62.5 g ai/ha, 100=total damage to plant, 0=no damage to plant, read-out: Barnyardgrass damage rating; for pest or weed control at 250 g/ha: 250 g ai/ha
Outline: (§2)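 Test compound in 0.5% Tween 20 acetone/water (50:50) was applied at three rates (15.625, 62.5, 250 g/ha) to soil sown one day earlier. After 13 days plants were scored for injury, where 0 means unaffected and 100 means completely damaged.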

[8] = test system: giant foxtail (Setaria faberi); test: Test G Pre-Emergence Protocol; details: Setaria faberi, pre-emergence, 312 h, evaluated after 13 days; for pest or weed control at 15.625 g/ha: 15.625 g ai/ha; for pest or weed control at 15.625 g/ha / pest or weed control at 250 g/ha: read-out: Foxtail, Giant damage rating (100=total damage to plant; 0=no damage to plant); for pest or weed control at 62.5 g/ha: 62.5 g ai/ha, 100=total damage to plant, 0=no damage to plant, read-out: Foxtail, Giant damage rating; for pest or weed control at 250 g/ha: 250 g ai/ha
Outline: as §2

[9] = test system: velvetleaf (Abutilon theophrasti); test: Test G Pre-Emergence Protocol; details: Abutilon theophrasti, pre-emergence, 312 h, evaluated after 13 days; for pest or weed control at 15.625 g/ha: 15.625 g ai/ha; for pest or weed control at 15.625 g/ha / pest or weed control at 250 g/ha: read-out: Velvetleaf damage rating (100=total damage to plant; 0=no damage to plant); for pest or weed control at 62.5 g/ha: 62.5 g ai/ha, 100=total damage to plant, 0=no damage to plant, read-out: Velvetleaf damage rating; for pest or weed control at 250 g/ha: 250 g ai/ha
Outline: as §2

corn (Zea mays) [10] = test: Test G Pre-Emergence Protocol; details: Zea mays, pre-emergence, 312 h, evaluated after 13 days; for plant injury at 15.625 g/ha: 15.625 g ai/ha; for plant injury at 15.625 g/ha / plant injury at 250 g/ha: read-out: Corn damage rating (100=total damage to plant; 0=no damage to plant); for plant injury at 62.5 g/ha: 62.5 g ai/ha, 100=total damage to plant, 0=no damage to plant, read-out: Corn damage rating; for plant injury at 250 g/ha: 250 g ai/ha
Outline: as §2

[11] = test system: redroot pigweed (Amaranthus retroflexus); test: Test G Pre-Emergence Protocol; details: Amaranthus retroflexus, pre-emergence, 312 h, evaluated after 13 days; for pest or weed control at 15.625 g/ha: 15.625 g ai/ha; for pest or weed control at 15.625 g/ha / pest or weed control at 250 g/ha: read-out: Pigweed, Redroot damage rating (100=total damage to plant; 0=no damage to plant); for pest or weed control at 62.5 g/ha: 62.5 g ai/ha, 100=total damage to plant, 0=no damage to plant, read-out: Pigweed, Redroot damage rating; for pest or weed control at 250 g/ha: 250 g ai/ha
Outline: as §2

[12] = test system: ivy-leaved morning glory (Ipomoea hederacea); test: Test G Pre-Emergence Protocol; details: Ipomoea, pre-emergence, 312 h, evaluated after 13 days; for pest or weed control at 15.625 g/ha: 15.625 g ai/ha; for pest or weed control at 15.625 g/ha / pest or weed control at 250 g/ha: read-out: Morningglory, Ivy-leaved damage rating (100=total damage to plant; 0=no damage to plant); for pest or weed control at 62.5 g/ha: 62.5 g ai/ha, 100=total damage to plant, 0=no damage to plant, read-out: Morningglory, Ivy-leaved damage rating; for pest or weed control at 250 g/ha: 250 g ai/ha
Outline: as §2

| Structure (SMILES) | pest or weed control at 15.625 g/ha [1] [%] | pest or weed control at 62.5 g/ha [1] [%] | pest or weed control at 250 g/ha [1] [%] | pest or weed control at 15.625 g/ha [2] [%] | pest or weed control at 62.5 g/ha [2] [%] | pest or weed control at 250 g/ha [2] [%] | pest or weed control at 15.625 g/ha [3] [%] | pest or weed control at 62.5 g/ha [3] [%] | pest or weed control at 250 g/ha [3] [%] | plant injury at 15.625 g/ha (corn (Zea mays) [4]) [%] | plant injury at 62.5 g/ha (corn (Zea mays) [4]) [%] | plant injury at 250 g/ha (corn (Zea mays) [4]) [%] | pest or weed control at 15.625 g/ha [5] [%] | pest or weed control at 62.5 g/ha [5] [%] | pest or weed control at 250 g/ha [5] [%] | pest or weed control at 15.625 g/ha [6] [%] | pest or weed control at 62.5 g/ha [6] [%] | pest or weed control at 250 g/ha [6] [%] | pest or weed control at 15.625 g/ha [7] [%] | pest or weed control at 62.5 g/ha [7] [%] | also measured |
| --- | --- | --- | --- | --- | --- | --- | --- | --- | --- | --- | --- | --- | --- | --- | --- | --- | --- | --- | --- | --- | --- |
| CN1C[C@H](c2ccc(C(F)(F)F)cc2)[C@@H](C(=O)Nc2cccc3c2S(=O)(=O)CC3)C1=O (racemic) [Compound 1737] | 0 | 0 | 0 | 0 | 0 | 0 | 0 | 0 | 0 | 0 | 0 | 0 | 0 | 0 | 0 | 0 | 0 | 0 | 0 | 0 | pest or weed control at 250 g/ha [7]: 0%; pest or weed control at 15.625 g/ha [8]: 0%; pest or weed control at 62.5 g/ha [8]: 0%; pest or weed control at 250 g/ha [8]: 0%; pest or weed control at 15.625 g/ha [9]: 0%; pest or weed control at 62.5 g/ha [9]: 0%; pest or weed control at 250 g/ha [9]: 0%; plant injury at 15.625 g/ha (corn (Zea mays) [10]): 0%; plant injury at 62.5 g/ha (corn (Zea mays) [10]): 0%; plant injury at 250 g/ha (corn (Zea mays) [10]): 0%; pest or weed control at 15.625 g/ha [11]: 0%; pest or weed control at 62.5 g/ha [11]: 0%; pest or weed control at 250 g/ha [11]: 0%; pest or weed control at 15.625 g/ha [12]: 0%; pest or weed control at 62.5 g/ha [12]: 0%; pest or weed control at 250 g/ha [12]: 0% |
| CN1C[C@H](c2cccc(C(C)(C)C#N)c2)[C@@H](C(=O)Nc2ccccc2S(C)(=O)=O)C1=O (racemic) [Compound 1784] | 0 | 0 | 0 | 0 | 0 | 0 | 0 | 0 | 0 | 0 | 0 | 0 | 0 | 0 | 0 | 0 | 0 | 0 | 0 | 10 | pest or weed control at 250 g/ha [7]: 10%; pest or weed control at 15.625 g/ha [8]: 10%; pest or weed control at 62.5 g/ha [8]: 0%; pest or weed control at 250 g/ha [8]: 40%; pest or weed control at 15.625 g/ha [9]: 0%; pest or weed control at 62.5 g/ha [9]: 0%; pest or weed control at 250 g/ha [9]: 0%; plant injury at 15.625 g/ha (corn (Zea mays) [10]): 0%; plant injury at 62.5 g/ha (corn (Zea mays) [10]): 0%; plant injury at 250 g/ha (corn (Zea mays) [10]): 0%; pest or weed control at 15.625 g/ha [11]: 0%; pest or weed control at 62.5 g/ha [11]: 0%; pest or weed control at 250 g/ha [11]: 0%; pest or weed control at 15.625 g/ha [12]: 0%; pest or weed control at 62.5 g/ha [12]: 0%; pest or weed control at 250 g/ha [12]: 10% |
